Measured values taken from patent US20230265151A1, “GIP/GLP1 CO-AGONIST COMPOUNDS” (priority 2020, published 2023).
Like-named read-outs stand apart in the source and are kept apart here.

Experiments:
Type in all cases: cell-based
[1] = biological target: T1, hGIPR (Homo sapiens, UniProt P48546); assay: Functional cAMP formation (HTRF) in HEK-293 clonal cells expressing hGIPR, 0.1% bovine casein, without or with 1.0% human serum albumin; conditions: 37° C.; for EC50: geometric mean, read-out: hGIPR EC50, nM (SEM, n); for Emax: percent of maximal response to GIP(1-42)NH2, read-out: hGIPR Emax, % ± SEM
T1 construct: expressed in transfected cells
T1 sequence (P48546 22-466): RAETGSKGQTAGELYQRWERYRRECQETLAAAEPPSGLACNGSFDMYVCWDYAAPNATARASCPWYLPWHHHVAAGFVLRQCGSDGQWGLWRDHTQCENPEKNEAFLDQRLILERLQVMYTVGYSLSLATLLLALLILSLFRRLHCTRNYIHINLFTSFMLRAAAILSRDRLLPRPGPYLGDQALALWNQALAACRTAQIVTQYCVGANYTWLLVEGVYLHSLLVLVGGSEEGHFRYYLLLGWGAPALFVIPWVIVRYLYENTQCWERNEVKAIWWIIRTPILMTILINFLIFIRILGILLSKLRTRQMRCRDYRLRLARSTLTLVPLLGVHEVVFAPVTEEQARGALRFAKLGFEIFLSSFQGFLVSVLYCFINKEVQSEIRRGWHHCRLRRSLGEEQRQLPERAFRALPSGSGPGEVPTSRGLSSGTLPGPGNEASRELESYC
Summary of the method: (§1)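 Readings of the HTRF 665/620 nm ratio, which falls as cAMP rises, were converted to nM cAMP using a standard curve after 30 min peptide exposure at 37° C.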

[2] = biological target: T2, hGCGR (Homo sapiens, UniProt P47871); assay: Functional cAMP formation (HTRF) in HEK-293 clonal cells expressing hGCGR, 0.1% bovine casein, without or with 1.0% human serum albumin; conditions: geometric mean, read-out: hGCGR EC50, nM (SEM, n)
T2 construct: expressed in transfected cells
T2 sequence (P47871 26-477): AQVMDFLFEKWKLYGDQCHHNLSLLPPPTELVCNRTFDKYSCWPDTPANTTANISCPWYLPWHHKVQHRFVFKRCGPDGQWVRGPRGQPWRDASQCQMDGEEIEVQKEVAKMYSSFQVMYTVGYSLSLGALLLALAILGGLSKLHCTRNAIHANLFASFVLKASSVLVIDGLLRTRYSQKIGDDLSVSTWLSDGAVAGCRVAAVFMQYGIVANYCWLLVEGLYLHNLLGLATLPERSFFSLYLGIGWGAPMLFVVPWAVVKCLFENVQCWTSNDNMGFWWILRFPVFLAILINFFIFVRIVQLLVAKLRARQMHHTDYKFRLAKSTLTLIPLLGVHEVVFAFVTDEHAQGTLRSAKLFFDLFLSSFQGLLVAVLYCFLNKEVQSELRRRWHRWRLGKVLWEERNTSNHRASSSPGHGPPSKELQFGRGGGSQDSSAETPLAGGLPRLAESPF
Summary of the method: as §1

[3] = biological target: hGLP-1R (Homo sapiens, UniProt P43220); assay: Functional cAMP formation (HTRF) in HEK-293 clonal cells expressing hGLP-1R, 0.1% bovine casein, without or with 1.0% human serum albumin; parameters: expressed in transfected cells; conditions: 37° C.; for EC50: geometric mean, read-out: hGLP-1R EC50, nM (SEM, n); for Emax: read-out: hGLP-1R Emax, % ± SEM
Chain of hGLP-1R (P43220 24-463): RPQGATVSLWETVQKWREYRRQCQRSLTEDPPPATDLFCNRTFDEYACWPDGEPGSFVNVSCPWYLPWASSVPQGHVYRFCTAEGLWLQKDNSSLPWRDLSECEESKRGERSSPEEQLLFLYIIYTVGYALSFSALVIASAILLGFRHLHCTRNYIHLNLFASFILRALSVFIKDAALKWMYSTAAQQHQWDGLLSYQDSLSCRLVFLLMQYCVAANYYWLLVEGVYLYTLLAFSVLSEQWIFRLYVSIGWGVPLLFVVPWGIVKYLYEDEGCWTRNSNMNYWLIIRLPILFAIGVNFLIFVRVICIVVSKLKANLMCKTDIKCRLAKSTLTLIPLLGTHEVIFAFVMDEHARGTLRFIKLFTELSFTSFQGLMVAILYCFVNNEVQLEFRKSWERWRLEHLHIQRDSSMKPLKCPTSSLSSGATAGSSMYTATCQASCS
Summary of the method: as §1

[4] = 0.1% bovine casein and 1.0% human serum albumin
[5] = HEK293, 0.1% bovine casein and 1.0% human serum albumin
[6] = 0.1% bovine casein and 1.0% human serum albumin, 37° C.
[7] = HEK293, 0.1% bovine casein and 1.0% human serum albumin, percent of maximal response to GLP-1(7-36)NH2
[8] = cAMP, 0.1% bovine casein (no human serum albumin)

SMILES	EC50 [1, 4]	Emax [1, 5]	EC50 [2, 6]	EC50 ([2]; cAMP, incubated at 37° C., 0.1% bovine casein (no human serum albumin))	EC50 [3, 4]	Emax [3, 7]	Emax ([3]; HEK293, percent of maximal response to GLP-1(7-36)NH2, 0.1% bovine casein, arithmetic mean)	Emax ([1]; HEK293, cAMP, 0.1% bovine casein, arithmetic mean)	EC50 [1, 8]	EC50 ([2]; cAMP, 37° C., 0.1% bovine casein (no human serum albumin))	Emax ([3]; HEK293, cAMP, 0.1% bovine casein, percent of maximal response to GLP-1(7-36)NH2, arithmetic mean)	EC50 [3, 8]
CCCCCCCCCCCCCCCC(=O)N[C@@H](CCC(=O)NCCOCCOCC(=O)NCCOCCOCC(=O)NCCOCCOCC(=O)NCCCC[C@H](NC(=O)CNC(=O)CNC(=O)[C@H](CCC(=O)O)NC(=O)[C@@H](NC(=O)[C@H](CC(C)C)NC(=O)[C@](C)(Cc1ccc(O)cc1)NC(=O)[C@@H](CCC(=O)O)NC(=O)[C@@H](NC(=O)[C@H](Cc1ccccc1)NC(=O)[C@H](CCC(=O)O)NC(=O)C(C)(C)NC(=O)[C@H](CCC(N)=O)NC(=O)[C@H](C)NC(=O)[C@H](CCCCNC(=O)COCCOCCNC(=O)COCCOCCNC(=O)COCCOCCNC(=O)CC[C@H](NC(=O)CCCCCCCCCCCCCCC)C(=O)O)NC(=O)[C@H](CCCN)NC(=O)[C@H](CC(=O)O)NC(=O)[C@H](CC(C)C)NC(=O)[C@](C)(CC(C)C)NC(=O)[C@@H](NC(=O)[C@H](CO)NC(=O)[C@H](Cc1ccncc1)NC(=O)[C@H](CC(=O)O)NC(=O)[C@H](CO)NC(=O)[C@@H](NC(=O)[C@](C)(Cc1ccccc1F)NC(=O)[C@@H](NC(=O)CNC(=O)[C@H](CCC(=O)O)NC(=O)C(C)(C)NC(=O)[C@@H](N)Cc1ccc(O)cc1)[C@@H](C)O)[C@@H](C)O)[C@@H](C)CC)[C@@H](C)CC)[C@@H](C)CC)C(=O)N[C@@H](CO)C(=O)N[C@@H](CO)C(=O)NCC(=O)N[C@@H](C)C(=O)N1CCC[C@H]1C(=O)N1CCC[C@H]1C(=O)N1CCC[C@H]1C(=O)N[C@@H](CO)C(N)=O)C(=O)O [Example 31]	0.147 nM	88.9%	> 9950 nM	> 9950 nM	0.545 nM	109 ± 7.91%	91.3 ± 16.1%	–	–	–	–	–
CC[C@H](C)[C@H](NC(=O)[C@H](CC(C)C)NC(=O)[C@](C)(Cc1ccc(O)cc1)NC(=O)[C@@H](CCC(=O)O)NC(=O)[C@@H](NC(=O)[C@H](Cc1ccccc1)NC(=O)[C@H](CCC(=O)O)NC(=O)C(C)(C)NC(=O)[C@H](CCC(N)=O)NC(=O)[C@H](C)NC(=O)[C@H](CCCCNC(=O)COCCOCCNC(=O)COCCOCCNC(=O)CCCCCCCCCCCCC(=O)O)NC(=O)[C@H](CCCN)NC(=O)[C@H](CC(=O)O)NC(=O)[C@H](CC(C)C)NC(=O)[C@](C)(CC(C)C)NC(=O)[C@@H](NC(=O)[C@H](CO)NC(=O)[C@H](Cc1ccc2ccccc2c1)NC(=O)[C@H](CC(=O)O)NC(=O)[C@H](CO)NC(=O)[C@@H](NC(=O)[C@](C)(Cc1ccccc1F)NC(=O)[C@@H](NC(=O)CNC(=O)[C@H](CCC(=O)O)NC(=O)C(C)(C)NC(=O)[C@@H](N)Cc1ccc(O)cc1)[C@@H](C)O)[C@@H](C)O)[C@@H](C)CC)[C@@H](C)CC)C(=O)N[C@@H](CCCCNC(=O)COCCOCCNC(=O)COCCOCCNC(=O)CCCCCCCCCCCCC(=O)O)C(=O)NCC(=O)NCC(=O)N1CCC[C@H]1C(=O)N[C@@H](CO)C(=O)N[C@@H](CO)C(=O)NCC(=O)N[C@@H](C)C(=O)N1CCC[C@H]1C(=O)N1CCC[C@H]1C(=O)N1CCC[C@H]1C(=O)N[C@@H](CO)C(N)=O [Example 256]	1.5 nM	75.3%	> 9950 nM	–	–	95.5%	–	97.7%	0.0175 nM	> 9950 nM	95.4%	0.249 nM
